From US20250066339A1, “HETEROCYCLE-SUBSTITUTED AROMATIC COMPOUND, METHOD FOR PREPARING SAME, HERBICIDAL COMPOSITION, AND USE THEREOF” (QINGDAO KINGAGROOT CHEMICAL COMPOUND CO., LTD., priority 2022, published 2025)

Assays:
Assay in all cases: Post-emergence test on weeds
Type in all cases: in vivo
Parameters in all cases: key: Level 10: completely dead; Level 9: growth control rate greater than or equal to 90% and less than 100%; Level 8: growth control rate greater than or equal to 80% and less than 90%; Level 7: growth control rate greater than or equal to 70% and less than 80%; Level 6: growth control rate greater than or equal to 60% and less than 70%; Level 5: growth control rate greater than or equal to 50% and less than 60%; Level 4: growth control rate greater than or equal to 40% and less than 50%; Level 3: growth control rate greater than or equal to 30% and less than 40%; Level 2: growth control rate greater than or equal to 20% and less than 30%; Level 1: growth control rate less than 20%; Level 0: no effect
Conditions in all cases: 3 weeks after application, fresh weight control rate
Veronica polita = test system: Veronica polita
Source text: (§1) The activity level criteria for plant damage (i.e., growth control rate) are as follows: • Level 10: completely dead; • Level 9: growth control rate greater than or equal to 90% and less than 100%; • Level 8: growth control rate greater than or equal to 80% and less than 90%; • Level 7: growth control rate greater than or equal to 70% and less than 80%; • Level 6: growth control rate greater than or equal to 60% and less than 70%; • Level 5: growth control rate greater than or equal to 50% and less than 60%; • Level 4: growth control rate greater than or equal to 40% and less than 50%; • Level 3: growth control rate greater than or equal to 30% and less than 40%; • Level 2: growth control rate greater than or equal to 20% and less than 30%; • Level 1: growth control rate less than 20%; • Level 0: no effect.
(§2) The above growth control rates are fresh weight control rates.
(§3) Monocotyledonous and dicotyledonous weed seeds (Descurainia sophia, Capsella bursa-pastoris, Abutilon theophrasti, Galium spurium, Stellaria media, Lithospermum arvense, Rorippa indica, Alopecurus aequalis, Alopecurus japonicus, Eleusine indica, Beckmannia syzigachne, Sclerochloa dura, Erigeron canadensis, Phleum paniculatum, Veronica polita, Bromus japonicus, Aegilops tauschii, Phalaris arundinacea, Amaranthus retroflexus, Chenopodium, Commelina communis, Cichorium endivia, Convolvulus arvensis, Cirsium arvense, Solanum nigrum, Acalypha australis, Digitaria sanguinalis, Echinochloa crus-galli, Setaria viridis, Setaria pumila, Leptochloa chinensis, Monochoria vaginalis, Sagittaria trifolia, Schoenoplectiella juncoides, Cyperus rotundus, Cyperus iria, Cyperus difformis, Fimbristylis, Portulaca oleracea, Xanthium sibiricum, Ipomoea nil, Eschenbachia japonica, etc.) and major crop seeds (wheat, maize, paddy rice, soybean, cotton, oilseed rape, millet, sorghum, potato, sesame, castor plant, etc.) were placed in plastic pots filled with soil and then covered with 0.5-2 cm of soil to allow them to grow in a favorable greenhouse environment. Two weeks after sowing, the test plants were treated at the stage of 2-3 leaves. The test compounds of the present invention were individually dissolved with acetone, then added with Tween® 80, with 1.5 L/ha of methyl oleate emulsifiable concentrate as a synergist, diluted into solutions of certain concentrations using certain amount of water, and sprayed to the plants using a spray tower. After drug application, the experimental results on weeds were collected after 3 weeks of cultivation in a greenhouse. The compounds were applied at 500, 250, 125, 60, 15, and 7.5 g a.i./ha in triplicate, and the results were averaged.

Amaranthus retroflexus = test system: Amaranthus retroflexus
Source text: as §1, §2, §3

Setaria viridis = test system: Setaria viridis
Source text: as §1, §2, §3

Digitaria sanguinalis = test system: Digitaria sanguinalis
Source text: as §1, §2, §3

Echinochloa crus-galli = test system: Echinochloa crus-galli
Source text: as §1, §2, §3

Abutilon theophrasti = test system: Abutilon theophrasti
Source text: as §1, §2, §3

Cc1ccc(/C=N/OC(=O)C2(C)CC(c3cc(-c4ncc(C(F)(F)F)cc4Cl)c(F)cc3Cl)=NO2)s1 (stereo not drawn) [Compound 73]
10: activity level (growth control rate) Veronica polita (Veronica polita; 60 g a.i./ha) | activity level (growth control rate) Amaranthus retroflexus (Amaranthus retroflexus; 60 g a.i./ha) | activity level (growth control rate) Setaria viridis (Setaria viridis; 60 g a.i./ha) | activity level (growth control rate) Digitaria sanguinalis (Digitaria sanguinalis; 60 g a.i./ha) | activity level (growth control rate) Echinochloa crus-galli (Echinochloa crus-galli; 60 g a.i./ha) | activity level (growth control rate) Abutilon theophrasti (Abutilon theophrasti; 60 g a.i./ha)

CC1(C(=O)ON=C2CCCC2)CC(c2cc(-c3ncc(C(F)(F)F)cc3Cl)c(F)cc2Cl)=NO1 (stereo not drawn) [Compound 74]
10: activity level (growth control rate) Veronica polita (Veronica polita; 60 g a.i./ha) | activity level (growth control rate) Amaranthus retroflexus (Amaranthus retroflexus; 60 g a.i./ha) | activity level (growth control rate) Setaria viridis (Setaria viridis; 60 g a.i./ha) | activity level (growth control rate) Digitaria sanguinalis (Digitaria sanguinalis; 60 g a.i./ha) | activity level (growth control rate) Echinochloa crus-galli (Echinochloa crus-galli; 60 g a.i./ha) | activity level (growth control rate) Abutilon theophrasti (Abutilon theophrasti; 60 g a.i./ha)

CCOC(=O)CCC1(C)CC(c2cc(-c3ncc(C(F)(F)F)cc3Cl)c(F)cc2Cl)=NO1 (stereo not drawn) [Compound 76]
10: activity level (growth control rate) Veronica polita (Veronica polita; 15 g a.i./ha) | activity level (growth control rate) Amaranthus retroflexus (Amaranthus retroflexus; 15 g a.i./ha) | activity level (growth control rate) Setaria viridis (Setaria viridis; 15 g a.i./ha) | activity level (growth control rate) Digitaria sanguinalis (Digitaria sanguinalis; 15 g a.i./ha) | activity level (growth control rate) Echinochloa crus-galli (Echinochloa crus-galli; 15 g a.i./ha) | activity level (growth control rate) Abutilon theophrasti (Abutilon theophrasti; 15 g a.i./ha)

CCSC(=O)C1(C)CC(c2cc(-c3ncc(C(F)(F)F)cc3Cl)c(F)cc2Cl)=NO1 (stereo not drawn) [Compound 78]
10: activity level (growth control rate) Veronica polita (Veronica polita; 15 g a.i./ha) | activity level (growth control rate) Amaranthus retroflexus (Amaranthus retroflexus; 15 g a.i./ha) | activity level (growth control rate) Setaria viridis (Setaria viridis; 15 g a.i./ha) | activity level (growth control rate) Digitaria sanguinalis (Digitaria sanguinalis; 15 g a.i./ha) | activity level (growth control rate) Echinochloa crus-galli (Echinochloa crus-galli; 15 g a.i./ha) | activity level (growth control rate) Abutilon theophrasti (Abutilon theophrasti; 15 g a.i./ha)

CCOC(=O)C1(C)CC(c2cc(-c3ncc(OC)cc3Cl)c(F)cc2Cl)=NO1 (stereo not drawn) [Compound 102]
10: activity level (growth control rate) Veronica polita (Veronica polita; 60 g a.i./ha) | activity level (growth control rate) Amaranthus retroflexus (Amaranthus retroflexus; 60 g a.i./ha) | activity level (growth control rate) Setaria viridis (Setaria viridis; 60 g a.i./ha) | activity level (growth control rate) Digitaria sanguinalis (Digitaria sanguinalis; 60 g a.i./ha) | activity level (growth control rate) Echinochloa crus-galli (Echinochloa crus-galli; 60 g a.i./ha) | activity level (growth control rate) Abutilon theophrasti (Abutilon theophrasti; 60 g a.i./ha)

C=C(C)c1cnc(-c2cc(C3=NOC(C)(C(=O)OCSC)C3)c(Cl)cc2F)c(Cl)c1 (stereo not drawn) [Compound 104]
10: activity level (growth control rate) Veronica polita (Veronica polita; 60 g a.i./ha) | activity level (growth control rate) Amaranthus retroflexus (Amaranthus retroflexus; 60 g a.i./ha) | activity level (growth control rate) Setaria viridis (Setaria viridis; 60 g a.i./ha) | activity level (growth control rate) Digitaria sanguinalis (Digitaria sanguinalis; 60 g a.i./ha) | activity level (growth control rate) Echinochloa crus-galli (Echinochloa crus-galli; 60 g a.i./ha) | activity level (growth control rate) Abutilon theophrasti (Abutilon theophrasti; 60 g a.i./ha)

CSCCOC(=O)C1CC(c2cc(-c3ncc(C(F)(F)F)cc3Cl)c(F)cc2Cl)=NO1 (stereo not drawn) [Compound 105]
10: activity level (growth control rate) Veronica polita (Veronica polita; 60 g a.i./ha) | activity level (growth control rate) Amaranthus retroflexus (Amaranthus retroflexus; 60 g a.i./ha) | activity level (growth control rate) Setaria viridis (Setaria viridis; 60 g a.i./ha) | activity level (growth control rate) Digitaria sanguinalis (Digitaria sanguinalis; 60 g a.i./ha) | activity level (growth control rate) Echinochloa crus-galli (Echinochloa crus-galli; 60 g a.i./ha) | activity level (growth control rate) Abutilon theophrasti (Abutilon theophrasti; 60 g a.i./ha)

C=C(C)c1cnc(-c2cc(C3=NOC(C)(C(=O)ON=C(C)C)C3)c(Cl)cc2F)c(Cl)c1 (stereo not drawn) [Compound 113]
10: activity level (growth control rate) Veronica polita (Veronica polita; 60 g a.i./ha) | activity level (growth control rate) Amaranthus retroflexus (Amaranthus retroflexus; 60 g a.i./ha) | activity level (growth control rate) Setaria viridis (Setaria viridis; 60 g a.i./ha) | activity level (growth control rate) Digitaria sanguinalis (Digitaria sanguinalis; 60 g a.i./ha) | activity level (growth control rate) Echinochloa crus-galli (Echinochloa crus-galli; 60 g a.i./ha) | activity level (growth control rate) Abutilon theophrasti (Abutilon theophrasti; 60 g a.i./ha)

CC(C)=NOC(=O)C1(C2CC2)CC(c2cc(-c3ncc(C(F)(F)F)cc3Cl)c(F)cc2Cl)=NO1 (stereo not drawn) [Compound 129]
10: activity level (growth control rate) Veronica polita (Veronica polita; 60 g a.i./ha) | activity level (growth control rate) Amaranthus retroflexus (Amaranthus retroflexus; 60 g a.i./ha) | activity level (growth control rate) Setaria viridis (Setaria viridis; 60 g a.i./ha) | activity level (growth control rate) Digitaria sanguinalis (Digitaria sanguinalis; 60 g a.i./ha) | activity level (growth control rate) Echinochloa crus-galli (Echinochloa crus-galli; 60 g a.i./ha) | activity level (growth control rate) Abutilon theophrasti (Abutilon theophrasti; 60 g a.i./ha)
